Test results reported in patent US8492426B1, “Use of carvedilol for treatment of diabetes mellitus” (priority 2012, dated 2013).

Key:
[1] = system: Type II diabetes mellitus patients; assay: Group 2: Type II diabetes mellitus patients uncontrolled on diet and oral medication, Carvedilol used in place of insulin; type: in vivo, human
Experimental: Data has been collected utilizing the various methods described herein and included for purposes of showing results and further exemplifying the preferred embodiments of this invention. A study was performed on two groups: Group 1 and Group 2. Both groups included patients with diabetes mellitus and a history of uncontrolled blood sugar. The patients of each group were between the ages of 40 and 85 and consisted of both males and females and various ethnicities. Group 1 consisted of patients that were already on insulin (humulin mix, novolog mix, etc.) and who were unable to control their blood sugar. The patients in Group 2 were taking oral medications, were unable to control their blood sugar, and needed insulin to regulate their disease.
Normal blood sugar levels were considered to be 120 mg % (mg % is milligram per 100 cc blood), which was equivalent to 6.0 HbA1c before meals or while fasting. After the first visit and examination, the patients' blood sugar and HbA1c levels were reviewed. […] Then patients were requested to report their blood sugar weekly. […] HbA1c levels were checked approximately 2-3 months after controlling the blood sugar.
Group 2 consisted of Type II diabetes mellitus patients who could not control their blood sugar on diet nor oral medication and would need to start insulin. Carvedilol was used in place of insulin to control blood sugar as well as other anti-diabetic oral medications. • 1. […] Sitagliptin was then discontinued and the hypoglycemia subsequently disappeared. […] The last recorded HbA1c was 6.8 • 2. patient three had poorly controlled blood sugar but managed an HbA1c of 8.0 and mean fasting glucose of 183 mg %. They were taking three oral medications: Metformin 1000 mg BID, Sitagliptin 100 mg daily and Sulfonylurea. They were started on Carvedilol and their blood sugar came down to 90 mg %. […] Their HbA1c level is 6.5 • 3. […] They were prescribed Metformin and Glyburide Micro. They were also given Bayetta, however their blood sugar remained uncontrolled. […] Their HbA1c level is 8.4 • 4. […] The patient also suffered from severe Peripheral Neuritis. Their HbA1c was 10.2 in December 2011. The patient was taking Metformin 1000 mg twice a day, Sitagliptin 100 mg daily and Glyburide Micro 6 mg twice a day. The patient was started on Carvedilol in February 2012. Their HbA1c in late March 2012 was down to 8.2 with a mean plasma glucose of 189 mg %. […] Their HbA1c is now 7.8. • 5. […] They have been on Janumet […] twice a day, Glymeperide which was changed to Glyburide Micro 3 mg twice daily. […] Carvedilol was added to their regimen and their blood sugar was recently reported at 81 mg %. […] Their HbA1c level is 7.1

[2] = system: patients with diabetes mellitus already on insulin; assay: Group 1: diabetes mellitus patients already on insulin with uncontrolled blood sugar, prescribed Carvedilol with diet; type: in vivo, human
Experimental: Data has been collected utilizing the various methods described herein and included for purposes of showing results and further exemplifying the preferred embodiments of this invention. A study was performed on two groups: Group 1 and Group 2. Both groups included patients with diabetes mellitus and a history of uncontrolled blood sugar. The patients of each group were between the ages of 40 and 85 and consisted of both males and females and various ethnicities. Group 1 consisted of patients that were already on insulin (humulin mix, novolog mix, etc.) and who were unable to control their blood sugar. The patients in Group 2 were taking oral medications, were unable to control their blood sugar, and needed insulin to regulate their disease. Normal blood sugar levels were considered to be 120 mg % (mg % is milligram per 100 cc blood), which was equivalent to 6.0 HbA1c before meals or while fasting. After the first visit and examination, the patients' blood sugar and HbA1c levels were reviewed. […] Then patients were requested to report their blood sugar weekly. […] HbA1c levels were checked approximately 2-3 months after controlling the blood sugar. Group 1 data is presented below for patients with Type II diabetes mellitus who were already taking insulin and were unable to control their blood sugar. The data includes blood sugar and HbA1c levels before and after taking Carvedilol. • 1. JBM-65-M was first seen in January 2012. Their HbA1c was more than 9.0 and fasting plasma glucose was 282 mg %. They were taking 35 units at night of Lente insulin and regular insulin before each meal at a dosage of 10-30 units, on a sliding scale. They began taking an effective dosage of Carvedilol with a diet in February 2012. […] BS-81-F was taking 36 units of Humulin N twice a day in February 2012. Their HbA1c was 7.6 and mean plasma glucose was 171 mg %. They began taking an effective dosage of Carvedilol immediately. In April 2012 their HbA1c was 6.5 and their mean plasma glucose was 140 mg %. […] patient four is a Type I diabetic with two episodes of myocardial infarction and four stents post Percutaneous Transluminal Coronary Angioplasty (PTCA). In January 2012 […] HbA1c was 8.2 with a mean […] glucose of 203 mg %. They were taking 400 units of Novolog mix 70/30 in two divided doses. After Carvedilol and an improved diet, the dose of insulin has been reduced to a total of 90 units a day in two divided doses. Their HbA1c is the same but recent blood sugar was 134 mg %. • 4. […] They were taking Novolog 70/30 40 units twice a day. They were started on Carvedilol with an improved diet. […] Currently they are reporting a plasma blood glucose below 120 mg %. • 5. […] They were taking Novlog mix 70/30 20 units twice a day. […] Group 2

Structure (SMILES): COc1ccccc1OCCNCC(O)COc1cccc2[nH]c3ccccc3c12 (racemic) [Carvedilol, (±)-1-(Carbazol-4-yloxy-3-[[2-(o-methoxyphenoxy-)ethyl]amino]-2-propanol]
- other anti-diabetic medication after Carvedilol ([1]; patient -76): able to stop Glyburide Micro
- blood sugar ([1]; patient -76, Carvedilol added to regimen, before: 273 mg % after cortisone shot, mean plasma glucose 163 mg %): 81 mg %
- HbA1c ([1]; patient -76, on Carvedilol, before: 8.3): 7.1
- HbA1c ([1]; patient eight, started Carvedilol recently, before: 8.5): 8.4
- blood sugar ([1]; patient eight, started Carvedilol recently, before: fasting plasma glucose 197 mg %, uncontrolled on Metformin, Glyburide Micro, Bayetta): reached normal levels
- adverse effect ([1]; patient one, Carvedilol taken together with Sitagliptin, disappeared after Sitagliptin was discontinued): hypoglycemia
- last recorded HbA1c ([1]; patient one, Carvedilol, Sitagliptin discontinued): 6.8
- blood sugar control ([1]; patient one, Carvedilol, Sitagliptin discontinued, before: blood sugar 200 mg %): controlled the patient's blood sugar
- other anti-diabetic medication after Carvedilol ([1]; patient six): stopped taking Glyburide Micro
- mean plasma glucose ([1]; patient six, late March 2012, Carvedilol since February 2012): 189 mg %
- HbA1c ([1]; patient six, late March 2012, Carvedilol since February 2012, before (December 2011): 10.2): 8.2
- blood sugar ([1]; patient six, more recently reported): 95 mg %
- HbA1c ([1]; patient six, now, after stopping Glyburide Micro): 7.8
- other anti-diabetic medication after Carvedilol ([1]; patient three): discontinued use of Sitagliptin
- blood sugar ([1]; patient three, Carvedilol added to Metformin, Sitagliptin, Sulfonylurea, before: mean fasting glucose 183 mg %): 90 mg %
- HbA1c ([1]; patient three, on Carvedilol, Sitagliptin discontinued, before: 8.0): 6.5
- fasting plasma glucose ([2]; patient five, April 2012, Carvedilol with diet since February 2012, before: 282 mg %): 122 mg %
- HbA1c ([2]; patient five, April 2012, Carvedilol with diet since February 2012, before: more than 9.0): 5.5
- insulin use after Carvedilol ([2]; patient five, by April 2012, before: 35 units Lente at night plus 10-30 units regular insulin before each meal): taken off insulin completely
- dose of insulin after Carvedilol ([2]; patient four, Type I diabetic, Carvedilol and improved diet, two divided doses, before: 400 units Novolog mix 70/30): 90 units a day
- HbA1c ([2]; patient four, Type I diabetic, after Carvedilol and improved diet, before: 8.2): the same
- recent blood sugar ([2]; patient four, Type I diabetic, after Carvedilol and improved diet, before: mean plasma glucose 203 mg %): 134 mg %
- mean plasma glucose ([2]; patient nine, April 2012, Carvedilol since February 2012, before: 171 mg %): 140 mg %
- HbA1c ([2]; patient nine, April 2012, Carvedilol since February 2012, before: 7.6): 6.5
- insulin use after Carvedilol ([2]; patient nine, by April 2012, before: 36 units Humulin N twice a day): taken off of insulin completely
- plasma glucose ([2]; patient seven, renal failure, after five weeks on Carvedilol, off insulin, before: 249 mg %): below 120 mg %
- HbA1c corresponding to plasma glucose ([2]; patient seven, after five weeks on Carvedilol, before: 10.3): 6.0
- insulin use after Carvedilol ([2]; patient seven, after five weeks on Carvedilol, before: Novlog mix 70/30 20 units twice a day): taken off insulin
- HbA1c ([2]; patient two, April 2012, Carvedilol with improved diet, off insulin, before (December 2011): 11.4): 8.6
- plasma blood glucose ([2]; patient two, April 2012, before: 280 mg %): 200 mg %
- insulin use after Carvedilol ([2]; patient two, before: Novolog 70/30 40 units twice a day): came off of insulin
- plasma blood glucose ([2]; patient two, currently reported): below 120 mg %
